Data published in article PMC8564633, “SMAC/Diablo controls proliferation of cancer cells by regulating phosphatidylethanolamine synthesis” (Molecular Oncology, 2021).
Values belong to the molecule of their own block, whether it stands above or below them. Non-standard residues stand in square brackets, D forms with d. No end group written: not given here. Dmt = Cc1cc(O)cc(C)c1C[C@H](N)C(=O)O; Orn = NCCC[C@H](N)C(=O)O

What was measured:
[1] = molecular target: T1, purified PSD (Homo sapiens, UniProt Q9UG56); test: MST, labelled PSD with synthetic peptides; details: labelled PSD 0.25 µM, peptide 1–10 µM, 30 min, 37 °C, n = 3, read-out: Kd, peptide binding to purified PSD
T1 construct: Purified recombinant protein (full length) of human phosphatidylserine decarboxylase (PSD); His tag (N); purchased Acris-OriGene; host or cells: E. coli
T1 sequence (Q9UG56 53-409): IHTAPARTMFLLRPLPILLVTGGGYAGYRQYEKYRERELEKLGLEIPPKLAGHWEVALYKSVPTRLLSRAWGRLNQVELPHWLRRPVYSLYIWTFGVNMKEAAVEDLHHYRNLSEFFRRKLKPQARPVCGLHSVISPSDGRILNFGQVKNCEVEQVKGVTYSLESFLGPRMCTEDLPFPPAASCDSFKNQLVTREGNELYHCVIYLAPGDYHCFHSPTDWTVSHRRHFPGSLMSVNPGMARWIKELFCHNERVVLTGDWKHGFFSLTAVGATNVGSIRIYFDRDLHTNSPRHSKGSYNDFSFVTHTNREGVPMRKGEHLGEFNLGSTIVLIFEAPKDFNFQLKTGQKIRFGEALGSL

[2] = tested on: purified SMAC; test: Glass‐bound peptide array blotted with SMAC with or without PSD; type: binding, human; details: SMAC preincubated with purified PSD, anti‐SMAC antibodies
Method: Customized 768‐peptide sequences derived from 11 SMAC‐interacting proteins produced by INTAVIS Peptide Services (GmbH & Co. KG, Tübingen, Germany) were arrayed on a glass slide. Peptide arrays were blotted with SMAC, PSD or peptides interacting with PSD using anti‐SMAC or anti‐PSD antibodies. The interaction of purified SMAC or PSD with glass‐bound peptide arrays was assessed by slide washing (three times, 10 min each) with Tris‐buffered saline (150 mM NaCl, 50 mM Tris/HCl, pH 7.4), followed by overnight incubation with blocking buffer (Tris‐buffered saline containing low‐fat dry milk, 2.5%, w/v). The slides were then incubated for 4 h or overnight with purified SMAC (0.8 µM) with and without preincubation with PSD (0.3 µM). Similarly, slides were incubated with PSD (0.15 µM) with or without preincubation with the indicated peptide (20 μM) in blocking buffer at room temperature. After extensive slide washing with Tris‐buffered saline containing 0.05% Tween‐20, SMAC or PSD binding was detected using anti‐SMAC or anti‐PSD antibodies and HRP‐conjugated anti‐rabbit or anti‐mouse IgG as a secondary antibody. The blots were developed using EZ‐ECL (Biological Industries), according to the manufacturer’s instructions.
Fig. 6 PSD‐ and SMAC‐interacting partners. (A) Schematic presentation of peptide array and detection of their interaction with SMAC. (B) Glass‐bound peptide array consisting of overlapping peptides derived from 15 SMAC‐interacting proteins were incubated overnight with purified SMAC (0.8 µM) and then blotted with anti‐SMAC antibodies (1 : 1000), followed by incubation with HRP‐conjugated anti‐mouse IgG and detection using a chemiluminescence kit. Dark spots represent binding of SMAC to peptides derived from SMAC‐interacting proteins. (C) SMAC (0.3 µM) was incubated with purified PSD (0.4 µM) and blotted as in (B). The peptide spots where PSD prevented interaction with SMAC (Table S1) are circled. (D) Schematic presentation of peptide array and detection of their interaction with PSD. […]

[3] = Cell death induced by the PE probe; type: cell-based; details: data not shown
[4] = tested on: different cell lines; details: ref [35], cited from earlier work
From the text: To target the peptide to the nucleus (nuCPP), the peptides were fused to the tetrapeptide RrRK (r = D‐arginine), shown to primarily target the nucleus of HeLa cells.

[5] = tested on: A549 cell xenograft; test: A549 lung cancer xenograft tumour growth; type: in vivo, athymic nude mice; details: relative to si‐NT‐treated tumours, nude mice, n = 8 mice/group
Method: Male Hsd:Athymic ' Nude‐Foxn1nu mice (6–8 weeks old) were obtained from Envigo and were kept in the university animal facility in temperature‐controlled rooms and provided with water and food pellets ad libitum. All procedures involving mice were approved by the Ben‐Gurion Institutional Animal Care and Use Committee.
Lung cancer A549 (3 × 10 ^6 ) cells were implanted subcutaneously on the dorsal flanks. Tumour growth was recorded using digital calibre, and volumes were calculated using, volume = X^2 × Y/2, where X and Y are the short and long tumour dimensions, respectively. Mice were divided randomly into three groups once the average tumour volume reached ˜ 80 mm^3 and were treated subcutaneously with si‐NT or si‐hSMAC‐A mixed with JetPEI reagent (350 or 700 nM final concentration) three times a week. Mice were sacrificed at the end of experiment, and the tumours were excised and processed for immunohistochemistry (IHC) or frozen in liquid nitrogen for immunoblotting and RNA isolation.
(§1) Results are presented as the mean tumour volume ± SEM. […] Results are the means ± SEM.

[6] = tested on: SMAC/Diablo; test: SMAC expression in treated tumours (immunoblot, IHC); type: in vivo, human; details: si‐hSMAC‐A‐TTs versus si‐NT‐TTs, n = 6 mice/group
Method: Cells were harvested and washed twice with ice‐cold PBS, and the pellets were lysed on ice for 30 min in a lysis buffer (50 mM Tris/HCl, pH 7.5, 150 mM NaCl, 1 mM EDTA, 1.5 mM MgCl2, 10% glycerol, 1% Triton X‐100), freshly supplemented with a protease inhibitor cocktail (Calbiochem) and centrifuged (10 min, 12 000 g ). The protein concentration of the supernatant was determined, and cells were stored at −80 °C until used for gel electrophoresis and immunoblotting. Protein samples (10–20 μg) were subjected to SDS‐PAGE and immunoblotting, using the selected primary antibodies, followed by incubation with HRP‐conjugated secondary antibodies. HRP activity was determined using EZ‐ECL (Biological Industries). Band intensity was quantified using FUSION‐FX (Vilber Lourmat, Collégien, France).
as §1

[7] = tested on: Ki‐67; details: si‐hSMAC‐A‐TTs versus si‐NT‐TTs, IHC
[8] = tested on: A549 cell xenograft; test: TUNEL staining of treated tumours; type: in vivo, athymic nude mice; details: si‐hSMAC‐A‐TTs, data not shown
[9] = tested on: VDAC1‐IP3R close association (MAM); test: In‐situ proximity ligation assay VDAC1‐IP3R (MAM) in tumour sections; type: in vivo; details: si‐hSMAC‐A‐TTs sections relative to si‐NT‐TTs
Method: PLA was conducted as previously described using an in␣situ detection reagent red kit (DuoLink InSitu PLA Probe kit; Sigma‐Aldrich) according to the manufacturer’s protocol. VDAC1‐IP3R and SMAC‐PSD were analysed using PLA [24]. Briefly, for tumour section, formalin‐fixed and paraffin‐embedded tumour sections (5‐μm thick) were deparaffinized and then permeabilized using 0.3% Triton X‐100 in PBS for 30 min, followed by blocking with Duolink® Blocking Solution for 1 h. Sections were incubated overnight with anti‐VDAC1 (rabbit 1 : 750) and anti‐IP3R (mouse, 1 : 750), washed twice with TBS‐Tween (0.01%) and then incubated for 1 h with the secondary anti‐mouse and anti‐rabbit antibodies (PLA probe MINUS and PLUS) that were conjugated to complementary oligonucleotide extensions, and ligation and amplification steps were performed per manufacturer’s instructions, and Texas red‐labelled oligonucleotide probes were detected.
Fig. 3 Subcellular morphological alterations including ER‐mitochondria contact sites, as induced by reduction of SMAC levels. […] (C) and subjected to quantitative analysis (n = 5) (D). […] Images at high magnification (Ea,b) (scale bars represent 20, 5 µm as indicated) and ligation product quantification (F) are also shown.

[10] = tested on: phospholipid levels; test: Total PL, PC and PE levels in treated tumours; type: in vivo; details: si‐hSMAC‐A‐TTs relative to si‐NT‐TTs, n = 6 mice per group
Method: Total lipids were extracted from the SMAC‐KO and wild‐type A549/HEK 293T cells by the Folch method. Briefly, a cell suspension (2 × 10^7 cells/mL) was made in CHCl3/MeOH (2 : 1, v/v) sonicated for 30 s. Water (116 μL·mL^−1) was added to the suspension and shaken for 2 h at room temperature at 300 r.p.m. The aqueous suspension was heated for 10 min at 60 °C and stored at 4 °C for 3 h. Undissolved material was filtered through a 0.45‐μm syringe filter. Solvent was evaporated under nitrogen, and residues were re‐dissolved in CHCl3/MeOH for lipid analysis.
Total phospholipid content of the cells was determined calorimetrically at 488 nm based on the formation of a complex between the PLs and ammonium ferrothiocyanate. PC level was also determined by calorimetric analysis at 316 nm using ammonium thiocyanatocobaltate reagent, as described previously.
PE content in the lipid samples was measured as described previously. Briefly, solvent was evaporated from the lipid samples under nitrogen gas, and samples were resuspended in 0.8 mM Triton X‐100. Sample aliquots were added to 96‐well plates containing (50 µL) reaction mixture (80 mM NaCl, 2 mM K2HPO4, pH 7.4) and of borate buffer (12.5 µL) (100 mM boric acid, 75 mM NaCl, 25 mM sodium tetraborate, pH 9). After mixing, 12.5 µL of 100 µM DSB‐3, in 10 mM K2HPO4 (pH 7.4), was then added and incubated for 2 h in the dark with shaking (100 r.p.m.). Fluorescence was measured using excitation λex = 403 nm and emission λem = 508 nm. A calibration curve was obtained using PE (Biovision) as a standard.
as §1

[11] = molecular target: T2, Purified recombinant protein (full length) of human phosphatidylserine decarboxylase (PSD) (human, UniProt Q9UG56 53-409, fluorescently labelled (in the MST with the peptides 2F3 and 1C11 only)); test: MST; SMAC fluorescently labelled (NanoTemper BLUE kit), 1 µM, incubated with purified PSD (78–625 nM) for 30 min at 37 °C; 10 mM Tris buffer, pH 7.4; Monolith NT.115, LED 20%, IR laser 20%; details: both partners purified
T2 construct: phosphatidylserine decarboxylase, human, full length, recombinant; also called PISD; purified PSD; source: bought: Acris‐OriGene, expressed in E. coli, purified; not shown: His tag, N-terminal, kept
T2 sequence (looked up): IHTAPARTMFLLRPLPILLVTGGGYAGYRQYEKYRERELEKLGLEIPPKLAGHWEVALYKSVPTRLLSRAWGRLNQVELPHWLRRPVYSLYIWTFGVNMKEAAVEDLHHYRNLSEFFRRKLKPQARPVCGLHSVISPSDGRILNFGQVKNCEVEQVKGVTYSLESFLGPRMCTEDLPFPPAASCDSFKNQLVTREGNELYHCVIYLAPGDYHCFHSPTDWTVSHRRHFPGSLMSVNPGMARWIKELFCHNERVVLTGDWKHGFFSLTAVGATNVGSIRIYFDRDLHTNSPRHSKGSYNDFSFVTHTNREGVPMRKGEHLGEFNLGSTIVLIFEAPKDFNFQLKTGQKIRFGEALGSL

Kd [1]: 3 µM
Molecule: ALLTSGTSDPRARVTYGTPSLWRL [1C11]

Molecule: ALSTSSPIPSVPQSQAQPQTGSGAS [2F3]
Kd [1]: 3 µM

effect of PSD preincubation on SMAC binding to the peptide spot [2]: prevented SMAC interaction
Molecule: DVDKLREQLS TSENALTGRILDLKT [2J14]

Molecule: Distyrylbenzene‐bis‐aldehyde [DSB‐3]
cell death [3]: no cell death

effect of PSD preincubation on SMAC binding to the peptide spot [2]: prevented SMAC interaction
Molecule: FQQLTCVLPI LDNLLKANVINKQEH [1E14]

effect of PSD preincubation on SMAC binding to the peptide spot [2]: prevented SMAC interaction
Molecule: PNQSSRAFQGT DHSSDLAFDFLSQQ [2I8]

Molecule: [dR][Dmt][Orn]F-NH2 [mtCPP‐1]
toxicity ([4]; different cell lines): no toxicity
induction of apoptosis [4]: did not induce apoptosis

Molecule: si‐hSMAC‐A: Human SMAC/Diablo‐specific siRNA, sense 5′AAGCGGUGUUUCUCAGAATTGtt3′, antisense 5′AACAAUUCUGAGAAACCCG Ctt3′ (sense AAGCGGUGUUUCUCAGAATTGTT; antisense AACAAUUCUGAGAAACCCGCTT; chemistry not given here)
tumour volume reduced ([5]; si‐hSMAC‐A 350 nM): 50%
tumour volume reduced ([5]; si‐hSMAC‐A 700 nM): 85%
SMAC/Diablo level decreased [6]: 75%
expression of Ki‐67, cell proliferation marker [7]: highly reduced
cell death, TUNEL staining [8]: No cell death was detected
PLA signal VDAC1‐IP3R [9]: over fourfold
levels of PE increased ([10]; DSB‐3 probe): 200%
levels of PC decreased [10]: 65%
levels of PLs decreased [10]: 50%

Kd [11]: 0.246 µM
B1: Human recombinant SMAC (SMAC/Diablo, second mitochondria‐derived activator of caspase/direct inhibitor of apoptosis‐binding protein with low pI) (natural protein)
chain: AVPIAQKSEPHSLSSEALMRRAVSLVTDSTSTFLSQTTYALIEAITEYTKAVYTLTSLYRQYTSLLGKMNSEEEDEVWQVIIGARAEMTSKHQEYLKLETTWMTAVGLSEMAAEAAYQTGADQASITARNHIQLVKLQVEEVHQLSRKAETKLAEAQIEELRQKTQEEGEERAESEQEAYLRED
modifications: fluorescently labelled with the NanoTemper Protein labelling kit BLUE (in the MST with PSD only)
